This is an account of results in PubChem BioAssay (NCI).

Among the test systems are COLO 205 colon; DU-145 prostate; EKVX NSCLC; HL-60(TB) leukemia; HOP-62 NSCLC; LOX IMVI melanoma; MALME-3M melanoma; OVCAR-3 ovarian; OVCAR-5 ovarian; PC-3 prostate; SF-295 CNS; SF-539 CNS; SK-MEL-28 melanoma; SK-OV-3 ovarian; SN12C renal; SNB-19 CNS; SNB-75 CNS; SR leukemia; SW-620 colon; MDA-MB-231 breast.
Assay in all cases: DTP human tumour cell line panel, 48 h

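Five concentrations, 48 hours, 96-well plates. TGI denotes the concentration required for complete inhibition of growth.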 Bounds are passed on as bounds.

For the molecule `CCOC(=O)C(C(=O)OCC)=C1NC2(c3ccccc3Nc3ccc(C)cc32)C(C#N)S1` (centres undefined), the TGI (commonly the concentration at which net growth stops) was 14.6 µM in the assay on COLO 205 colon; 43.8 µM in the assay on DU-145 prostate; 39.5 µM in the assay with EKVX NSCLC; 61.2 µM in the assay on HL-60(TB) leukemia; 33.7 µM with HOP-62 NSCLC; 24.4 µM in the assay on LOX IMVI melanoma. Moreover, the TGI is 30.7 µM in the assay with MALME-3M melanoma; 8.44 µM in the assay on OVCAR-3 ovarian; 27.7 µM in the assay with OVCAR-5 ovarian; 13.7 µM in the assay on PC-3 prostate; 58.7 µM in the assay on SF-295 CNS; 12 µM in the assay on SF-539 CNS. For the same molecule, the TGI with SK-MEL-28 melanoma amounted to 70.9 µM; in the assay with SK-OV-3 ovarian, 98.9 µM; with SN12C renal, 8.68 µM; in the assay on SNB-19 CNS, 30.8 µM; in the assay with SNB-75 CNS, 64.3 µM; in the assay with SR leukemia, 4.99 µM. The molecule also registered a TGI in the assay on SW-620 colon of 30.3 µM.

In the case of `CC(C)(C)[Si](C)(C)O[C@@H](C(=O)OC1C=CCCC1)[C@@H](NC(=O)c1ccccc1)c1ccccc1` (some centres undefined), the TGI in the assay on COLO 205 colon is 76.8 µM; in the assay on DU-145 prostate, above 100 µM; with EKVX NSCLC it was above 100 µM; in the assay on HOP-62 NSCLC, above 100 µM; in the assay on LOX IMVI melanoma, 41.2 µM; in the assay with MALME-3M melanoma it was above 100 µM. The TGI in the assay with MDA-MB-231 breast is above 100 µM; in the assay with OVCAR-3 ovarian it was above 100 µM; with OVCAR-5 ovarian it was above 100 µM; in the assay on PC-3 prostate, above 100 µM; with SF-295 CNS, 65.1 µM; in the assay on SF-539 CNS it was above 100 µM. The TGI is above 100 µM in the assay on SK-MEL-28 melanoma; above 100 µM in the assay on SK-OV-3 ovarian; 61.3 µM with SN12C renal; above 100 µM in the assay with SNB-19 CNS; above 100 µM in the assay with SNB-75 CNS; 37.9 µM in the assay on SR leukemia. Besides, the TGI with SW-620 colon is above 100 µM.

On to `ClC1(Cl)C(c2ccccc2)C1c1ccccc1` (centres undefined), for which the TGI with COLO 205 colon was above 100 µM; in the assay with DU-145 prostate, above 100 µM; in the assay on EKVX NSCLC it was 53.1 µM; in the assay with HOP-62 NSCLC it was above 100 µM; in the assay on LOX IMVI melanoma, 93 µM; in the assay on MDA-MB-231 breast, above 100 µM. The TGI in the assay with OVCAR-3 ovarian was 87.8 µM; in the assay with OVCAR-5 ovarian it was above 100 µM; with PC-3 prostate, above 100 µM; in the assay with SF-295 CNS, 82.3 µM; with SK-MEL-28 melanoma, above 100 µM; in the assay with SK-OV-3 ovarian it was 55.7 µM. Further, the TGI in the assay with SN12C renal was above 100 µM; with SNB-19 CNS, above 100 µM; in the assay with SNB-75 CNS, above 100 µM; in the assay with SR leukemia, 55.4 µM; with SW-620 colon, above 100 µM.

With `Cc1csc2nc3c(cnn3C)c(=S)n12`, the TGI in the assay with COLO 205 colon is above 10 µM; with EKVX NSCLC, above 100 µM; in the assay on HOP-62 NSCLC, above 100 µM; in the assay on LOX IMVI melanoma it was above 100 µM; in the assay on MALME-3M melanoma, above 100 µM; in the assay with MDA-MB-231 breast it was above 10 µM. Also, the TGI in the assay on OVCAR-3 ovarian, in the assay on OVCAR-5 ovarian, in the assay on PC-3 prostate, with SF-295 CNS, in the assay with SF-539 CNS and with SK-MEL-28 melanoma was above 100 µM throughout. Moreover, the TGI with SK-OV-3 ovarian, in the assay on SN12C renal, with SNB-19 CNS, in the assay on SNB-75 CNS, in the assay with SR leukemia and with SW-620 colon was above 100 µM throughout.

Consider `CC1(C)CN=C(c2ccc3c(c2)Cc2cc(C4=NCC(C)(C)N4)ccc2-3)N1`, for which the TGI with COLO 205 colon was above 100 µM; in the assay with DU-145 prostate, above 100 µM; in the assay on EKVX NSCLC it was above 100 µM; with HOP-62 NSCLC it was above 100 µM; in the assay with LOX IMVI melanoma, above 100 µM; in the assay with MALME-3M melanoma, 61.2 µM. The TGI with MDA-MB-231 breast, in the assay with OVCAR-3 ovarian, in the assay with OVCAR-5 ovarian, in the assay with PC-3 prostate, with SF-295 CNS and with SK-MEL-28 melanoma was above 100 µM in each case. The TGI in the assay with SK-OV-3 ovarian, in the assay with SN12C renal, with SNB-19 CNS, with SNB-75 CNS, in the assay with SR leukemia and in the assay on SW-620 colon was above 100 µM in each case.

In the case of `CN(C)c1ccc(/C=N\NC(=O)c2ccccc2Nc2ccccc2C(=O)N/N=C/c2ccc(N(C)C)cc2)cc1`, the TGI in the assay with COLO 205 colon is above 100 µM; in the assay with DU-145 prostate, above 100 µM; in the assay on EKVX NSCLC it was above 100 µM; in the assay on HOP-62 NSCLC it was above 100 µM; in the assay on LOX IMVI melanoma, above 100 µM; in the assay with MALME-3M melanoma, 98 µM. Moreover, the TGI with MDA-MB-231 breast is 67.8 µM; in the assay with OVCAR-3 ovarian, above 100 µM; in the assay on OVCAR-5 ovarian, above 100 µM; in the assay on PC-3 prostate, above 100 µM; in the assay on SF-295 CNS it was above 100 µM; in the assay on SF-539 CNS, 81.9 µM. Besides, the TGI in the assay with SK-MEL-28 melanoma, in the assay with SK-OV-3 ovarian, in the assay on SN12C renal, in the assay on SNB-19 CNS, with SNB-75 CNS and in the assay with SR leukemia was above 100 µM throughout. In the assay with SW-620 colon, the TGI is above 100 µM.

Take `C=C1C(=O)OC2/C=C(\CO)C3OC3C3OC3(C)CC(OC(=O)/C(=C/C)CO)C12` (centres undefined): the TGI is above 100 µM in the assay on COLO 205 colon; above 100 µM with DU-145 prostate; above 100 µM in the assay on EKVX NSCLC; above 100 µM with HOP-62 NSCLC; above 100 µM in the assay with LOX IMVI melanoma; 68.6 µM with MALME-3M melanoma. Further, the TGI with MDA-MB-231 breast, with OVCAR-3 ovarian, in the assay with OVCAR-5 ovarian, in the assay on PC-3 prostate, with SF-295 CNS and in the assay with SF-539 CNS was above 100 µM in each case. Also, the TGI in the assay on SK-MEL-28 melanoma was above 100 µM; in the assay on SK-OV-3 ovarian, above 100 µM; with SN12C renal, above 100 µM; in the assay on SNB-19 CNS it was above 100 µM; in the assay with SNB-75 CNS, above 100 µM; in the assay with SR leukemia it was 89 µM. In the assay with SW-620 colon, the TGI is above 100 µM.
